Laboratory results published in PubChem BioAssay (NCI).
Values joined by “and” are separate entries in the source; they are usually repeats but may differ in a detail not shown here. Equal entries are not always repeated.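 96-well plates; 48 h exposure; 5 concentrations. Endpoints by linear interpolation between flanking doses. Not reached: highest tested concentration assigned. Abbreviation: GI50, concentration required for 50% inhibition of growth. TGI denotes the concentration required for complete inhibition of growth.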

Assays:
Experiment in all cases: NCI-60 cell line screen, 48 h
[1] = tested on: SF-268 CNS
[2] = tested on: SK-OV-3 ovarian
[3] = tested on: SW-620 colon
[4] = tested on: UO-31 renal
[5] = tested on: CCRF-CEM leukemia
[6] = tested on: MCF7 breast
[7] = tested on: OVCAR-5 ovarian

Structure (SMILES) | GI50 [1] | TGI [1] [µM] | GI50 [2] | TGI [2] [µM] | GI50 [3] | TGI [3] [µM] | GI50 [4] | TGI [4] [µM] | GI50 [5] | TGI [5] [µM] | GI50 [6] | TGI [6] [µM] | GI50 [7] | TGI [7] [µM]
COc1ncc(-c2ccc3nccc(C#CCN4CCN(S(C)(=O)=O)CC4)c3c2)cc1NS(=O)(=O)c1ccc(F)cc1F | 98.5 nM | 3.93 | 0.0175 µM | 0.168 | 205 nM | 2.23 | 27.4 nM | 3.73 | 101 nM | 2.49 | < 10 nM | 1.79 | 20.7 nM | 5.72
CC1(C)OC2C(CO)OC(n3ccc(N)nc3=O)C2O1 (stereo not drawn) |  | > 100 |  | > 100 |  | > 100 |  | > 100 |  | > 100 |  | > 100 |  | > 100
CCOC(=O)[C@@H](C)C[C@H](Cc1ccccc1)NC(=O)c1csc([C@@H](C[C@H](C(C)C)N(C)C(=O)[C@@H](NC(=O)[C@H]2C[C@H](O)CCN2C)C(C)C)OC(C)=O)n1 | 8.81 nM | > 16.7 | 0.00474 µM | > 16.7 | 4.17 nM | > 16.7 | 647 nM | > 16.7 | 5.34 nM | > 16.7 | < 1.67 nM | > 16.7 | 15 nM | > 16.7
Cc1ccc(NC(=O)c2nc(S(C)(=O)=O)oc2-c2ccc(F)cc2)cc1Nc1ccc2ncn(C)c(=O)c2c1 |  |  | 14.1 µM | 27.1 |  |  | 1930 nM | 3.4 |  |  | 1900 nM | 4.43 | 2100 nM | 5.29
CN(CSc1ccc(Cl)cc1)c1ccc(CSc2ccc(Cl)cc2)cc1 | 1460 nM | 10.4 | 7.9 µM | 23.4 | 3960 nM | 15.9 | 1060 nM | 4.18 | 704 nM | > 100 | 3170 nM | 18.5 | 13500 nM | 34.5
FC(F)(F)c1ccc(-c2ncc(-c3ccc(C(F)(F)F)cc3)c(NCc3cc(C(F)(F)F)cc(C(F)(F)F)c3)n2)cc1 | 3980 nM | > 100 | 7.03 µM | 55.2 | 3950 nM | > 100 | 2940 nM | 36.6 | 4340 nM | > 100 | 3940 nM | > 100 | 6020 nM | > 100
CCOc1cc(/C=C/C(=O)C(C(=O)/C=C/c2ccc(OC(=O)CNc3nnc(C)s3)c(OCC)c2)C(=O)CNc2nnc(C)s2)ccc1OC(=O)CNc1nnc(C)s1 | 1360 nM | 4.13 | 4.15 µM | 18.2 | 1180 nM | 2.74 | 1410 nM | 7.81 | 251 nM | 1.06 | 317 nM | 2.28 | 2430 nM | 5.41
COC(=O)[C@@H](C)C[C@H](Cc1ccccc1)NC(=O)c1csc([C@@H](C[C@H](C(C)C)N(C)C(=O)C2(NC(=O)[C@H]3CCCCN3C)CCC2)OC(C)=O)n1 | 6.61 nM and 17.5 nM | > 25 | 0.0156 µM and 0.00504 µM | > 25 | 5.13 nM and 2.5 nM | > 25 | 734 nM and 157 nM | > 25 | 5.33 nM and 2.5 nM | > 25 | 0.508 nM and 2.5 nM | > 25 | 78.6 nM and 9.9 nM | > 25
CCCCN(CC)CCCCCCCCCCN1CCCc2cc(OC)ccc21 | 6520 nM | 32.1 | 5.19 µM | 21 | 2230 nM | 6.24 | 2080 nM | 11.3 | 3000 nM | 12.5 | 1800 nM | 3.59 | 6370 nM | 24.1
CC(C)OCc1cc(CN2CCN(c3cccc(Cl)c3)CC2)c(O)c2ncccc12 | 629 nM | 14.7 | 0.71 µM | 12.2 | 852 nM | 17.4 | 240 nM | 1.38 | 383 nM | 9.89 | 377 nM | 11.5 | 3600 nM | 15.1
NCCCNc1nc2ccc(Cl)cc2c2c(=O)c3cc(F)ccc3sc12 | 4100 nM | 18.2 |  |  | 1740 nM | 3.32 | 3350 nM | 16.1 | 2350 nM | 6.65 | 1680 nM | 3.42 | 3380 nM | 14.3
N#Cc1c2ccccc2c2nnc3ccccc3n12 | 50000 nM | > 100 | > 100 µM | > 100 | 23100 nM | 91.8 | 20000 nM | > 100 |  |  | 14200 nM | 52.4 |  | 
O=C(O)CNCCc1ccccc1 |  | > 100 |  | > 100 |  | > 100 |  | > 100 |  | > 100 |  | > 100 |  | > 100
C=C(CN1CCN(c2ccccc2C(F)(F)F)CC1)c1ccc(C(=O)Nc2ccccc2N)cc1 | 4550 nM | > 47 | 11 µM | > 100 | 3400 nM | > 65.9 | 1000 nM | > 60.3 | 72.8 nM | 0.546 | 4480 nM | 37.1 | 11800 nM | > 100
Cc1cc(C(O)(c2ccc(Nc3ccccc3)cc2)c2ccc(Nc3ccc(S(=O)(=O)O)cc3)cc2)ccc1N (stereo not drawn) | 1680 nM | 4.19 | 2.53 µM | 5.92 | 818 nM | 3.27 | 1120 nM | 2.38 | 439 nM | > 100 | 478 nM | 2.67 | 1400 nM | 3
CS(=N)(=O)CCC(N)P(=O)(O)O (stereo not drawn) |  | > 100 |  | > 100 |  | > 100 |  | > 100 |  |  |  | > 100 |  | > 100
O=C1c2cccnc2C(=O)c2c1c(C(=O)OCCc1ccccn1)c1ccccn21 | 18.8 nM | 5.31 | 0.0539 µM | 1.17 | < 10 nM | > 44.8 | < 11.7 nM | 0.387 | 1460 nM | > 25.9 | < 10 nM | 0.147 | 497 nM | 10.5
COc1cc2c3c(n(CCCN4CCCNCC4)c(=O)c2cc1OC)-c1cc2c(cc1C3=O)OCO2 | 758 nM | 11.2 | 4 µM | 15.5 | 267 nM | 12 | 1330 nM | 12.9 | 72.1 nM | 8.06 | 138 nM | 6.29 | 2690 nM | 9.69
